The test system of one experiment is rats. The note with it: cited from earlier work.
Experiment [1] has as its system Mice. Briefly: Appetite suppression in mice: 20% sucrose consumption, tested immediately after ip injection (Example 2). Type of experiment: in vivo. The conditions noted are these: 85 micrograms (equivalent to 3.4 mg/kg) in sterile saline, 10 minute test immediately after injection, versus vehicle control, p-value 0.002. As for the experimental part:
Mice were deprived of their normal food for two days and given free access to a 20% sucrose solution on the first day of food deprivation. After the two day food deprivation period, the mice were injected intraperitoneally with 0.5 ml of a solution containing the test substance. Immediately after injection, individual mice were placed in one of eight 15 cm square test boxes with a stainless steel grid floor and a glass drinking tube which projected into the box. […] Consumption of the sucrose solution was measured over a 10 minute period by electronically recording the total amount of contact with the sucrose solution during the test session. The degree of appetite suppression produced by a given test substance was determined by statistical comparison of the mean duration of sucrose consumption by control (vehicle treated) mice with that of mice treated with a test substance. The degree of appetite suppression in a treated group of mice was expressed as percent difference between the test and control group's response duration means. […]

In experiment [2] the test system is Mice. Briefly: Appetite suppression in mice: Complan formula milk consumption after subcutaneous injection (Example 4). Type of experiment: in vivo. The note with it: 30 min after injection, p<0.001.
For a further experiment, the system named is Healthy human volunteers. Description: Double-blind crossover trial of iv infusion: food intake, satiety, hunger, fullness and appetite in normal human subjects. The class given is in vivo. The conditions noted are these: iv infusion 50 pmol/(kg·h). From the text:
Healthy human volunteers (20 subjects) were in a double-blind crossover trial given an iv infusion of 50 pmol/(kg·h) of GLP-1(7-36)amide or saline on separate, but otherwise identical experimental days. The infusion was started at 9.00 and lasted until 15.00. At 9.45 the subjects received a fixed amount of breakfast and at 14.15 they had lunch of an identical composition but ad libitum. The subjects rated their feeling of satiety, hunger, fullness and appetite on a visual analogue scale every half hour.

The mark [3] stands for this setting: 9.00 to 15.00, 20 subjects, rated every half hour, p=0.007.

Where two headings read alike, the source gives them in different places. No end group written: not given here.

Take “GLP-1(1-36)amide (HDEFERHAEGTFTSDVSSYLEGQAAKEFIAWLVKGR-NH2; UniProt P01275 92-127, looked up, fragment) [GLP-1 fragment 1-36, C-terminal amide]”: in the experiment with rats (Tang-Christensen et al. 1996, route not stated), the “Effect on food intake” value is “no effect”.

For GLP-1(7-36)amide, in the experiment on Mice [1], the “Suppression of sucrose consumption” value came to 60%. The “Suppression of feeding (Complan consumption)” value with Mice [2] (1 mg/kg) was determined as 45%. Also, the “Maximum effect, suppression of feeding (Complan consumption)” value in the experiment with Mice [2] (20 mg/kg (highest dose tested)) was 60%.

In the case of “GLP-1: proglucagon fragment 72-108 per b6; as named in the cited rat studies (b7); in b63 it is shorthand for GLP-1(7-36)amide”, in the experiment on Healthy human volunteers (9.00 to 15.00, 20 subjects, rated every half hour, p=0.006), the “Satiety (visual analogue scale) versus saline” value was “GLP-1>Saline”. Moreover, the “Appetite (visual analogue scale) versus saline” value in the experiment with Healthy human volunteers (setting [3]) is given as “GLP-1<Saline”. In addition, the “Hunger (visual analogue scale) versus saline” value with Healthy human volunteers (setting [3]) is recorded as “GLP-1<Saline”. The “Fullness (visual analogue scale) versus saline” value in the experiment with Healthy human volunteers (9.00 to 15.00, 20 subjects, rated every half hour, p=0.010) is recorded as “GLP-1>Saline”. For the same substance, the Energy intake with Healthy human volunteers (ad libitum lunch, saline 4.3 MJ, p-value 0.009) is 3.9 mJ. The “Effect on food intake” value in the experiment on rats (administered intracerebroventricularly, Tang-Christensen et al. 1996) was “profound effect”; in the experiment with rats (administered intracerebroventricularly, Turton et al. 1996) it was “profound effect”; in the experiment on rats (peripheral administration, Turton et al. 1996) it was “inactive”; with rats (peripherally administered, Tang-Christensen et al. 1996), “no significant effect”.
